Experiments:
in vitro [1] = conditions: human, mrc5 cells
Polio PV-3 = type: cell-based, PV-3 WM-3
in vitro [2] = conditions: human, hela-ace2 cells
HCoV-229E = assay: microbe, parasite or virus in culture; type: cell-based
Flu A H1N1 = assay: Antiviral activity against Flu A H1N1; type: cell-based, Flu A H1N1 California/07/2009; conditions: Flu A H1N1, FIG. 1
Protocol: (§1) All other antiviral assays were run at Utah State/Justin Julander through NIAID Preclinical Services. The following virus strains and cell lines were used:
(§2) Compounds were added to cells prior to addition of virus at an appropriate MOI to cause visible CPE. […] For compounds with an SI.5, a virus yield reduction assay was conducted, where supernatant collected from the CPE assay was titered for virus. The EC90 was calculated as the amount of compound needed to reduce the virus titer by 1 log 10.

HRV 14 = assay: microbe, parasite or virus in culture; type: cell-based, Human Rhinovirus 14 strain 1059
YFV = assay: microbe, parasite or virus in culture; type: cell-based, YFV strain 17D
SARS-CoV-2 = assay: microbe, parasite or virus in culture; type: cell-based, SARS-CoV-2 strain USA-WA1/2020
in vitro [3] = conditions: human, hepg2 cells
HCoV-OC43 = assay: microbe, parasite or virus in culture; type: cell-based, Human Coronavirus
RSV A2 = assay: microbe, parasite or virus in culture; type: cell-based
in vitro [4] = conditions: human, h1 hela cells
DENV-2 = assay: microbe, parasite or virus in culture; type: cell-based, DENV-2 16681; conditions: for SI (selectivity), DENV-2 HepG2 assay: SI=CC50/EC50
ZIKV = assay: microbe, parasite or virus in culture; type: cell-based, ZIKV MR766
in vitro [5] = conditions: human, hep2 cells
Polio PV-1 = type: cell-based, PV-1 CHAT
CHIKV = assay: microbe, parasite or virus in culture; type: cell-based, CHIKV strain 181/25
COXV-B3 = assay: Antiviral activity against COXV-B3; type: cell-based, COXV-B3 HA 201933; conditions: COXV-B3, FIG. 1
Protocol: as §1, §2

HRV 16 = assay: microbe, parasite or virus in culture; type: cell-based, Human Rhinovirus 16 strain 11757
MERS-CoV = type: cell-based, MERS-CoV EMC
SARS-CoV-1 = type: cell-based
Cytotoxicity, HFF = type: cell-based; conditions: human, hff cells; read-out: HCMV/HFF CC50
HCMV = assay: HCMV/HFF antiviral assay; type: cell-based; conditions: Human betaherpesvirus 5, HFF
in vitro [6] = conditions: human, hct-8 cells
MEV = assay: Antiviral activity against MEV; type: cell-based, MEV CC; conditions: FIG. 1
Protocol: as §1, §2

[7] = cited from earlier work
DENV = conditions: cited from earlier work
[8] = Cytotoxicity from screening; type: cell-based

Nc1ncnc2c1ccn2[C@@H]1O[C@](F)(CO)[C@@H](O)[C@H]1O [Example 1, (2S,3S,4R,5R)-5-(4-amino-7H-pyrrolo[2,3-d]pyrimidin-7-yl)-2-fluoro-2-(hydroxymethyl)tetrahydrofuran-3,4-diol]
CC50 (in vitro [1]): 10000 to 99000 nM
efficacy vs RDV parent nucleosides and N-hydroxycytidine, Polio PV-3 (Polio PV-3): more efficacious than RDV parent nucleosides and N-hydroxycytidine
CC50 at 24 h (in vitro [2]): 1000 to 10000 nM
efficacy vs RDV parent nucleosides and N-hydroxycytidine, HCoV-229E (HCoV-229E; HCoV-229E, FIG. 1): more efficacious than RDV parent nucleosides and N-hydroxycytidine
EC50 (HCoV-229E; Human coronavirus 229E, MRC5, 120 h, read-out: HCoV-229E/MRC5 EC50): 100 to 1000 nM
efficacy vs RDV parent nucleosides and N-hydroxycytidine, Flu A H1N1 (Flu A H1N1): more efficacious than RDV parent nucleosides and N-hydroxycytidine
efficacy vs RDV parent nucleosides and N-hydroxycytidine, HRV14 (HRV 14; HRV14, FIG. 1): more efficacious than RDV parent nucleosides and N-hydroxycytidine
EC50 (HRV 14; Rhinovirus B, H1-HeLa, 48 h, read-out: HRV / H1 HeLa B 14 EC50): 100 to 1000 nM
efficacy vs RDV parent nucleosides and N-hydroxycytidine, YFV (YFV): more efficacious than RDV parent nucleosides and N-hydroxycytidine
EC50 (YFV; Yellow fever virus, HepG2, 24 h, read-out: YFV / HepG2 EC50): < 100 nM
activities and selectivity vs known compounds with the same MOA, SARS-CoV-2 (SARS-CoV-2; SARS-CoV-2): improved activities and selectivity
efficacy vs RDV parent nucleosides and N-hydroxycytidine, SARS-CoV-2 (SARS-CoV-2; SARS-CoV-2, FIG. 1): more efficacious than RDV parent nucleosides and N-hydroxycytidine
EC50 (SARS-CoV-2; Severe acute respiratory syndrome coronavirus 2, HeLa-ACE2, 24 h, read-out: SARS-CoV-2 / HeLa-ACE2 EC50): < 100 nM
CC50 at 72 h (in vitro [3]): 1000 to 10000 nM
EC50 (HCoV-OC43; Betacoronavirus 1, OC43, HCT-8, 48 h, read-out: HCoV-OC43/HCT-8 EC50): 100 to 1000 nM
efficacy vs RDV parent nucleosides and N-hydroxycytidine, HCoV-OC43 (HCoV-OC43; HCoV-OC43, FIG. 1): more efficacious than RDV parent nucleosides and N-hydroxycytidine
efficacy vs RDV parent nucleosides and N-hydroxycytidine, RSV A2 (RSV A2; RSV A2, FIG. 1): more efficacious than RDV parent nucleosides and N-hydroxycytidine
EC50 (RSV A2; human respiratory syncytial virus, HEp-2, 72 h, read-out: RSV A2 / Hep2 EC50): < 100 nM
CC50 (in vitro [4]): 1000 to 10000 nM
activities and selectivity vs known compounds with the same MOA, DENV (DENV-2; DENV): improved activities and selectivity
activities and selectivity compared to tubercidin and NITD-008 (DENV-2; DENV2 HepG2 assay): improved activities and selectivity compared to tubercidin and NITD-008
efficacy vs RDV parent nucleosides and N-hydroxycytidine, DENV-2 (DENV-2; DENV-2, FIG. 1): more efficacious than RDV parent nucleosides and N-hydroxycytidine
EC50 (DENV-2; Dengue virus, DENV2, HepG2, 24 h, read-out: DENV-2 / HepG2 EC50): < 100 nM
efficacy vs RDV parent nucleosides and N-hydroxycytidine, ZIKV (ZIKV; ZIKV, FIG. 1): more efficacious than RDV parent nucleosides and N-hydroxycytidine
EC50 (ZIKV; Zika virus, HepG2, 24 h, read-out: ZIKV / HepG2 EC50): < 100 nM
CC50 (in vitro [5]): 1000 to 10000 nM
efficacy vs RDV parent nucleosides and N-hydroxycytidine, Polio PV-1 (Polio PV-1): more efficacious than RDV parent nucleosides and N-hydroxycytidine
EC50 (CHIKV; Chikungunya virus, HepG2, 24 h, read-out: CHIKV / HepG2 EC50): < 100 nM
efficacy vs RDV parent nucleosides and N-hydroxycytidine, CHIKV (CHIKV; alphavirus CHIKV, FIG. 1): more efficacious than RDV parent nucleosides and N-hydroxycytidine
efficacy vs RDV parent nucleosides and N-hydroxycytidine, COXV-B3 (COXV-B3): more efficacious than RDV parent nucleosides and N-hydroxycytidine
efficacy vs RDV parent nucleosides and N-hydroxycytidine, HRV16 (HRV 16; HRV16, FIG. 1): more efficacious than RDV parent nucleosides and N-hydroxycytidine
EC50 (HRV 16; Rhinovirus A, H1-HeLa, 48 h, read-out: HRV / H1 HeLa A16 EC50): 100 to 1000 nM
efficacy vs RDV parent nucleosides and N-hydroxycytidine, MERS-CoV (MERS-CoV): more efficacious than RDV parent nucleosides and N-hydroxycytidine
efficacy vs RDV parent nucleosides and N-hydroxycytidine, SARS-CoV-1 (SARS-CoV-1): more efficacious than RDV parent nucleosides and N-hydroxycytidine
CC50 (Cytotoxicity, HFF): 1000 to 10000 nM
EC50 (HCMV): 1000 to 10000 nM
CC50 (in vitro [6]): 1000 to 10000 nM
efficacy vs RDV parent nucleosides and N-hydroxycytidine, MEV (MEV): more efficacious than RDV parent nucleosides and N-hydroxycytidine

C#C[C@@]1(O)[C@H](O)[C@@H](CO)O[C@H]1n1ccc2c(N)ncnc21 [NITD-008, reference compound]
two-week tox study outcome [7]: failed
efficacy in DENV-infected mouse model (DENV): good efficacy
SI (selectivity), DENV-2 HepG2 assay (DENV-2): 52
selectivity compared to tubercidin (DENV-2; DENV-2 HepG2 assay, FIG. 1): improved selectivity compared to tubercidin

Nc1ncnc2c1ccn2[C@@H]1O[C@H](CO)[C@@H](O)[C@H]1O [Tubercidin, reference compound]
cytotoxicity from screening [8]: significant cytotoxicity
antiviral potency against SARS-CoV-2 (SARS-CoV-2; SARS-CoV-2, screening): high antiviral potency
antiviral potency against DENV (DENV-2; DENV, screening): high antiviral potency
SI (selectivity), DENV-2 HepG2 assay (DENV-2): 2

— patent US20260325561A1, “4'-SUBSTITUTED NUCLEOSIDES AND NUCLEOTIDES AS ANTIVIRAL AGENTS” (THE SCRIPPS RESEARCH INSTITUTE, priority 2023, published 2026)
